Assay results published in PubChem BioAssay AID1963867 (Molecular Pharmacology Branch, DTP, NCI, 2024).

Test system: KRAS-mutant PDC tumor spheroid with HUVEC/MSC, viability
Assay: Anticancer human tumor 327498-153-R-J2-PDC patient-derived uterine carcinosarcoma cell line growth inhibition [KRAS2]
Conditions: for viability, T/C: stronger effect = lower value
Outline: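 Combination screen of spheroid viability in tumor-cell co-cultures with endothelial (HUVEC) and mesenchymal stem cell stroma. Each agent was tested in half-log dilutions, topping at clinical Cmax or at 10 microM without a known Cmax.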

[1] = curve of first compound, second compound 0.1 µM
[2] = curve of first compound, second compound 0.316 µM
[3] = curve of first compound, second compound 1 µM
[4] = curve of first compound, second compound 3.16 µM
[5] = curve of first compound, second compound 10 µM
[6] = second compound 0.1 µM, first compound 0.0316 µM
[7] = second compound 0.1 µM, first compound 0.1 µM
[8] = second compound 0.1 µM, first compound 0.316 µM
[9] = second compound 0.1 µM, first compound 1 µM
[10] = second compound 0.1 µM, first compound 3.16 µM
[11] = second compound 0.1 µM, first compound 10 µM
[12] = second compound 0.316 µM, first compound 0.0316 µM
[13] = second compound 0.316 µM, first compound 0.1 µM
[14] = second compound 0.316 µM, first compound 0.316 µM
[15] = second compound 0.316 µM, first compound 1 µM
[16] = second compound 0.316 µM, first compound 3.16 µM
[17] = second compound 0.316 µM, first compound 10 µM
[18] = second compound 1 µM, first compound 0.0316 µM
[19] = second compound 1 µM, first compound 0.1 µM
[20] = second compound 1 µM, first compound 0.316 µM
[21] = second compound 1 µM, first compound 1 µM
[22] = second compound 1 µM, first compound 3.16 µM
[23] = second compound 1 µM, first compound 10 µM
[24] = second compound 3.16 µM, first compound 0.0316 µM
[25] = second compound 3.16 µM, first compound 0.1 µM
[26] = second compound 3.16 µM, first compound 0.316 µM
[27] = second compound 3.16 µM, first compound 1 µM
[28] = second compound 3.16 µM, first compound 3.16 µM
[29] = second compound 3.16 µM, first compound 10 µM
[30] = second compound 10 µM, first compound 0.0316 µM
[31] = second compound 10 µM, first compound 0.1 µM
[32] = second compound 10 µM, first compound 0.316 µM
[33] = second compound 10 µM, first compound 1 µM
[34] = second compound 10 µM, first compound 3.16 µM
[35] = second compound 10 µM, first compound 10 µM
[36] = second compound 0.1 µM, first compound 0.000316 µM
[37] = second compound 0.1 µM, first compound 0.001 µM
[38] = second compound 0.1 µM, first compound 0.00316 µM
[39] = second compound 0.1 µM, first compound 0.01 µM
[40] = second compound 0.316 µM, first compound 0.000316 µM
[41] = second compound 0.316 µM, first compound 0.001 µM
[42] = second compound 0.316 µM, first compound 0.00316 µM
[43] = second compound 0.316 µM, first compound 0.01 µM
[44] = second compound 1 µM, first compound 0.000316 µM
[45] = second compound 1 µM, first compound 0.001 µM
[46] = second compound 1 µM, first compound 0.00316 µM
[47] = second compound 1 µM, first compound 0.01 µM
[48] = second compound 3.16 µM, first compound 0.000316 µM
[49] = second compound 3.16 µM, first compound 0.001 µM
[50] = second compound 3.16 µM, first compound 0.00316 µM
[51] = second compound 3.16 µM, first compound 0.01 µM
[52] = second compound 10 µM, first compound 0.000316 µM
[53] = second compound 10 µM, first compound 0.001 µM
[54] = second compound 10 µM, first compound 0.00316 µM
[55] = second compound 10 µM, first compound 0.01 µM
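Further: spheroids exposed to agents for seven days before reading.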
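Wherever viability, T/C is given: 100% = DMSO vehicle wells so lower means fewer viable cells.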

`Cn1nccc1Nc1nccc(-c2cc3c(s2)C(C)(C)N(CCN2CCOCC2)C3=O)n1` + COc1cc2nc(C)nc(NC(C)c3cc(N)cc(C(F)(F)F)c3)c2cc1OC1CCOC1 was tested, and the IC50 [1] was 851 nM, the IC50 [2] was 560 nM and the IC50 [3] was 826 nM. For the same molecule, the IC50 [4] was 531 nM, the IC50 [5] was 47.2 nM and the viability, T/C [6] was 72.8%. It also gave a viability, T/C [7] of 73.2%, a viability, T/C [8] of 57.6% and a viability, T/C [9] of 46.1%. It also gave a viability, T/C [10] of 44%, a viability, T/C [11] of 31.9% and a viability, T/C [12] of 82.8%. For the same molecule, the viability, T/C [13] was 67%, the viability, T/C [14] was 52.5% and the viability, T/C [15] was 47%. The viability, T/C [16] was 37.9%, the viability, T/C [17] was 31.6% and the viability, T/C [18] was 67.8%. For the same molecule, the viability, T/C [19] was 65.9%, the viability, T/C [20] was 53.7% and the viability, T/C [21] was 49.4%. For the same molecule, the viability, T/C [22] was 41.1%, the viability, T/C [23] was 33% and the viability, T/C [24] was 64.4%. The viability, T/C [25] was 57%, the viability, T/C [26] was 55.2% and the viability, T/C [27] was 45%. It also gave a viability, T/C [28] of 41.7%, a viability, T/C [29] of 36.6% and a viability, T/C [30] of 52.7%. The viability, T/C [31] was 46.4%, the viability, T/C [32] was 44.1% and the viability, T/C [33] was 43.8%. For the same molecule, the viability, T/C [34] was 34.7% and the viability, T/C [35] was 25.4%.
With `COc1cc2nccc(Oc3ccc(NC(=O)C4(C(=O)Nc5ccc(F)cc5)CC4)cc3)c2cc1OC` + CC1OCC2(CCN(c3cnc(Sc4ccnc(N)c4Cl)c(N)n3)CC2)C1N the IC50 [1] was 1310 nM, the IC50 [2] was 659 nM and the IC50 [3] was less than 31.6 nM. The IC50 [4] was less than 31.6 nM, the IC50 [5] was less than 31.6 nM and the viability, T/C [6] was 70.9%. For the same molecule, the viability, T/C [7] was 76.3%, the viability, T/C [8] was 61.8% and the viability, T/C [9] was 60.5%. The viability, T/C [10] was 21.6%, the viability, T/C [11] was 2.02% and the viability, T/C [12] was 53.3%. It also gave a viability, T/C [13] of 53.5%, a viability, T/C [14] of 46.9% and a viability, T/C [15] of 49.5%. For the same molecule, the viability, T/C [16] was 20.5%, the viability, T/C [17] was 1.95% and the viability, T/C [18] was 38.5%. The viability, T/C [19] was 35.9%, the viability, T/C [20] was 32.2% and the viability, T/C [21] was 31.9%. For the same molecule, the viability, T/C [22] was 10.8%, the viability, T/C [23] was 1.02% and the viability, T/C [24] was 29.9%. It also gave a viability, T/C [25] of 31.5%, a viability, T/C [26] of 23.1% and a viability, T/C [27] of 21.3%. It also gave a viability, T/C [28] of 14.4%, a viability, T/C [29] of 0.53% and a viability, T/C [30] of 24.6%. For the same molecule, the viability, T/C [31] was 21.9%, the viability, T/C [32] was 23.6% and the viability, T/C [33] was 22.1%. It also gave a viability, T/C [34] of 9.8% and a viability, T/C [35] of 0.48%.
In the case of `COc1cc(Nc2ncc3c(n2)-c2ccc(Cl)cc2C(c2c(F)cccc2OC)=NC3)ccc1C(=O)O`, the viability, T/C (compound 0.0316 µM) is reported as 19.4% [middle of 5 runs], the viability, T/C (compound 0.1 µM) is reported as 13.1% [middle of 5 runs] and the viability, T/C (compound 0.316 µM) is reported as 11.2% [middle of 5 runs]. The viability, T/C (compound 1 µM) was 12.1% [middle of 5 runs], the viability, T/C (compound 3.16 µM) was 12.5% [middle of 5 runs] and the viability, T/C (compound 10 µM) was 14.5% [middle of 5 runs]. The IC50 (curve of compound) was less than 31.6 nM.
For `COc1cc2nccc(Oc3ccc(NC(=O)C4(C(=O)Nc5ccc(F)cc5)CC4)cc3)c2cc1OC` + C=CC(=O)N1CCN(c2nc(=O)n(-c3c(C)ccnc3C(C)C)c3nc(-c4c(O)cccc4F)c(F)cc23)C(C)C1, the IC50 [1] was 1350 nM, the IC50 [2] was 1150 nM and the IC50 [3] was 1070 nM. It also gave an IC50 [4] of 1030 nM, an IC50 [5] of less than 31.6 nM and a viability, T/C [6] of 55.8%. The viability, T/C [7] was 63.5%, the viability, T/C [8] was 60.1% and the viability, T/C [9] was 59.6%. For the same molecule, the viability, T/C [10] was 22.6%, the viability, T/C [11] was 1.82% and the viability, T/C [12] was 56.8%. The viability, T/C [13] was 59.5%, the viability, T/C [14] was 59.9% and the viability, T/C [15] was 54.5%. It also gave a viability, T/C [16] of 16.5%, a viability, T/C [17] of 1.34% and a viability, T/C [18] of 49.1%. The viability, T/C [19] was 52.4%, the viability, T/C [20] was 53.7% and the viability, T/C [21] was 54%. For the same molecule, the viability, T/C [22] was 16%, the viability, T/C [23] was 1.1% and the viability, T/C [24] was 51.4%. The viability, T/C [25] was 49.7%, the viability, T/C [26] was 54.8% and the viability, T/C [27] was 50.9%. For the same molecule, the viability, T/C [28] was 15.2%, the viability, T/C [29] was 0.82% and the viability, T/C [30] was 36%. For the same molecule, the viability, T/C [31] was 37.5%, the viability, T/C [32] was 39.9% and the viability, T/C [33] was 34%. For the same molecule, the viability, T/C [34] was 8.7% and the viability, T/C [35] was 0.79%.
`CN(C)C/C=C/C(=O)Nc1cc2c(Nc3ccc(F)c(Cl)c3)ncnc2cc1O[C@H]1CCOC1` + COc1cc2nc(C)nc(NC(C)c3cc(N)cc(C(F)(F)F)c3)c2cc1OC1CCOC1 gave an IC50 [1] greater than 100 nM, an IC50 [2] greater than 100 nM and an IC50 [3] greater than 100 nM. It also gave an IC50 [4] of 16.2 nM, an IC50 [5] greater than 100 nM and a viability, T/C [36] of 88.6%. For the same molecule, the viability, T/C [37] was 84%, the viability, T/C [38] was 75.2% and the viability, T/C [39] was 76.7%. It also gave a viability, T/C [6] of 69.5%, a viability, T/C [7] of 68.1% and a viability, T/C [40] of 72.5%. The viability, T/C [41] was 76%, the viability, T/C [42] was 64% and the viability, T/C [43] was 67.3%. For the same molecule, the viability, T/C [12] was 59.9%, the viability, T/C [13] was 62.4% and the viability, T/C [44] was 90.8%. It also gave a viability, T/C [45] of 85.1%, a viability, T/C [46] of 88.1% and a viability, T/C [47] of 86%. The viability, T/C [18] was 83.8%, the viability, T/C [19] was 84.8% and the viability, T/C [48] was 60.9%. It also gave a viability, T/C [49] of 57.1%, a viability, T/C [50] of 52.7% and a viability, T/C [51] of 48.2%. It also gave a viability, T/C [24] of 49.9%, a viability, T/C [25] of 49.5% and a viability, T/C [52] of 58.5%. The viability, T/C [53] was 56.7%, the viability, T/C [54] was 49.8% and the viability, T/C [55] was 49.3%. It also gave a viability, T/C [30] of 53.7% and a viability, T/C [31] of 54.6%.
Molecule `CC(C)n1nc(-c2ccc3oc(N)nc3c2)c2c(N)ncnc21` + CNCc1ccccc1-c1csc(C(C)Nc2nc(C)nc3cc(OC)c(OC)cc23)c1 has an IC50 [1] of 4.87 nM, an IC50 [2] of 4.21 nM and an IC50 [3] of 2.3 nM. It also gave an IC50 [4] of less than 0.316 nM, an IC50 [5] of less than 0.316 nM and a viability, T/C [36] of 87.6%. The viability, T/C [37] was 80.3%, the viability, T/C [38] was 59.9% and the viability, T/C [39] was 33.4%. The viability, T/C [6] was 13.8%, the viability, T/C [7] was 7.32% and the viability, T/C [40] was 76.8%. For the same molecule, the viability, T/C [41] was 73.2%, the viability, T/C [42] was 56% and the viability, T/C [43] was 30.4%. It also gave a viability, T/C [12] of 10.3%, a viability, T/C [13] of 6.25% and a viability, T/C [44] of 68.2%. It also gave a viability, T/C [45] of 63.9%, a viability, T/C [46] of 43.4% and a viability, T/C [47] of 25.6%. It also gave a viability, T/C [18] of 7.89%, a viability, T/C [19] of 4.25% and a viability, T/C [48] of 20.1%. It also gave a viability, T/C [49] of 0.14%, a viability, T/C [50] of 1.09% and a viability, T/C [51] of 0.2%. For the same molecule, the viability, T/C [24] was 0.04%, the viability, T/C [25] was 1.36% and the viability, T/C [52] was 0.49%. For the same molecule, the viability, T/C [53] was 0.14%, the viability, T/C [54] was 0.93% and the viability, T/C [55] was 0.51%. For the same molecule, the viability, T/C [30] was 0.24% and the viability, T/C [31] was 0.39%.
